Active and inactive are the calls of the source. No cut-off for these calls is given here.
Assays:
[1] = Cytostatic activity against human WI38 cells after 72 hrs by MTT assay; format: cell-based; conditions: WI-38, 72 h
[2] = test system: Human betaherpesvirus 5; test: Antiviral activity against HCMV AD169 infected in HEL cells assessed as reduction of virus-induced cytopathogenicity after 3 days; format: functional, organism-based; conditions: Human betaherpesvirus 5, AD169, HEL, 72 h
[3] = test system: Human betaherpesvirus 5; test: Antiviral activity against HCMV Davis infected in HEL cells assessed as reduction of virus-induced cytopathogenicity after 3 days; format: functional, organism-based; conditions: Human betaherpesvirus 5, Davis, 72 h
[4] = Cytotoxicity against HEL cells assessed as change in cell morphology; format: cell-based; conditions: human
[5] = Cytotoxicity against HEL cells assessed as reduction in cell growth; format: cell-based; conditions: human
[6] = test system: Human alphaherpesvirus 1; test: Antiviral activity against HSV1 infected in HEL cells assessed as reduction of virus-induced cytopathogenicity; format: functional, organism-based
[7] = test system: Human alphaherpesvirus 2; test: Antiviral activity against HSV2 infected in HEL cells assessed as reduction of virus-induced cytopathogenicity; format: functional, organism-based
[8] = test system: Vesicular stomatitis virus; test: Antiviral activity against vesicular stomatitis virus infected in HEL cells assessed as reduction of virus-induced cytopathogenicity; format: functional, organism-based
[9] = test system: Mammalian orthoreovirus 1; test: Antiviral activity against Reovirus 1 infected in african green monkey Vero cells assessed as reduction of virus-induced cytopathogenicity; format: functional, organism-based
[10] = test system: Human respirovirus 3; test: Antiviral activity against parainfluenza virus 3 infected in african green monkey Vero cells assessed as reduction of virus-induced cytopathogenicity; format: functional, organism-based
[11] = test system: Sindbis virus; test: Antiviral activity against Sindbis virus infected in african green monkey Vero cells assessed as reduction of virus-induced cytopathogenicity; format: functional, organism-based
[12] = test system: Coxsackievirus B4; test: Antiviral activity against Coxsackievirus B4 infected in african green monkey Vero cells assessed as reduction of virus-induced cytopathogenicity; format: functional, organism-based
[13] = test system: Punta Toro virus; test: Antiviral activity against Punta Toro virus infected in african green monkey Vero cells assessed as reduction of virus-induced cytopathogenicity; format: functional, organism-based
[14] = test system: Vesicular stomatitis virus; test: Antiviral activity against vesicular stomatitis virus infected in HeLa cells assessed as reduction of virus-induced cytopathogenicity; format: functional, organism-based
[15] = test system: Coxsackievirus B4; test: Antiviral activity against Coxsackievirus B4 infected in HeLa cells assessed as reduction of virus-induced cytopathogenicity; format: functional, organism-based
[16] = test system: Respiratory syncytial virus; test: Antiviral activity against respiratory syncytial virus infected in HeLa cells assessed as reduction of virus-induced cytopathogenicity; format: functional, organism-based
[17] = test system: L1210; test: Cytostatic activity against mouse L1210 cells after 72 hrs by MTT assay; format: functional, cell-based; conditions: L1210, 72 h
[18] = test system: CCRF-CEM; test: Cytostatic activity against human CEM cells after 72 hrs by MTT assay; format: functional, cell-based
[19] = Cytostatic activity against human Molt4/C8 cells after 72 hrs by MTT assay; format: functional, cell-based; conditions: MOLT-4, 72 h
[20] = test system: HeLa; test: Cytostatic activity against human HeLa cells after 72 hrs by MTT assay; format: functional, cell-based
[21] = test system: MIA PaCa-2; test: Cytostatic activity against human MiaPaCa2 cells after 72 hrs by MTT assay; format: functional, cell-based; conditions: MIA PaCa-2, 72 h
[22] = test system: SW-620; test: Cytostatic activity against human SW620 cells after 72 hrs by MTT assay; format: functional, cell-based; conditions: SW-620, 72 h
[23] = test system: MCF7; test: Cytostatic activity against human MCF7 cells after 72 hrs by MTT assay; format: functional, cell-based; conditions: MCF7, 72 h
[24] = test system: NCI-H460; test: Cytostatic activity against human H460 cells after 72 hrs by MTT assay; format: functional, cell-based; conditions: NCI-H460, 72 h

| SMILES | IC50 [1] | EC50 [2] | EC50 [3] | MCC [4] | CC50 [5] | Activity [6] | Activity [7] | Activity [8] | Activity [9] | Activity [10] | Activity [11] | Activity [12] | Activity [13] | Activity [14] | Activity [15] | Activity [16] | IC50 [17] | IC50 [18] | IC50 [19] | IC50 [20] | further results |
| --- | --- | --- | --- | --- | --- | --- | --- | --- | --- | --- | --- | --- | --- | --- | --- | --- | --- | --- | --- | --- | --- |
| COc1cc(NC(C)CCCNC(=O)NCC2CCCCC2)c2ncccc2c1 (configuration not stated) | > 100 µM | 15.3 µM | 7.6 µM | 100 µM | 74 µM | inactive | inactive | inactive | inactive | inactive | inactive | inactive | inactive | inactive | inactive | inactive | 22 µM | 22 µM | 53 µM | > 100 µM | IC50 [21]: 60 µM; IC50 [22]: 61 µM; IC50 [23]: 61 µM; IC50 [24]: > 100 µM |
| COc1cc(NC(C)CCCNC(=O)NC2CCCC2)c2ncccc2c1 (configuration not stated) | 29 µM | > 20 µM | 12 µM | 100 µM | 56 µM | inactive | inactive | inactive | inactive | inactive | inactive | inactive | inactive | inactive | inactive | inactive | 41 µM | 41 µM | 44 µM | 21 µM | IC50 [21]: 19 µM; IC50 [22]: 19 µM; IC50 [23]: 30 µM; IC50 [24]: 25 µM |
| COc1cc(NC(C)CCCNC(=O)N(C2CCCCC2)C2CCCCC2)c2ncccc2c1 (configuration not stated) | 18 µM | > 0.8 µM | > 0.8 µM | 4 µM | 27 µM | inactive | inactive | inactive | inactive | inactive | inactive | inactive | inactive | inactive | inactive | inactive | 15 µM | 13 µM | 36 µM | 23 µM | IC50 [21]: 17 µM; IC50 [22]: 15 µM; IC50 [23]: 9 µM; IC50 [24]: 21 µM |
| CCN(CC)C(=O)NCCCC(C)Nc1cc(OC)cc2cccnc12 (configuration not stated) | > 100 µM | 49 µM | 26 µM | > 100 µM | > 100 µM | inactive | inactive | inactive | inactive | inactive | inactive | inactive | inactive | inactive | inactive | inactive | 207 µM | 142 µM | 155 µM | 58 µM | IC50 [21]: > 100 µM; IC50 [22]: > 100 µM; IC50 [23]: > 63 µM; IC50 [24]: > 100 µM |
| Nc1ccn(C[C@@H](CO)OCP(=O)(O)O)c(=O)n1 [CIDOFOVIR] | – | – | – | > 1270 µM | – | – | – | – | – | – | – | – | – | – | – | – | – | – | – | – | – |
| Nc1nc(O)c2ncn(COC(CO)CO)c2n1 [GANCICLOVIR] | – | – | – | > 1580 µM | – | – | – | – | – | – | – | – | – | – | – | – | – | – | – | – | – |
| COc1cc(NC(C)CCCNC(=O)NCc2ccncc2)c2ncccc2c1 (configuration not stated) | 10 µM | 13.4 µM | 1.2 µM | 100 µM | 72 µM | inactive | inactive | inactive | inactive | inactive | inactive | inactive | inactive | inactive | inactive | inactive | 3 µM | 2.9 µM | 24 µM | 18 µM | IC50 [21]: 20 µM; IC50 [22]: 2 µM; IC50 [23]: 30 µM; IC50 [24]: 48 µM |
| COc1cc(NC(C)CCCNC(=O)NC2CCCCC2)c2ncccc2c1 (configuration not stated) | > 100 µM | 53 µM | 10.5 µM | 100 µM | 94 µM | inactive | inactive | inactive | inactive | inactive | inactive | inactive | inactive | inactive | inactive | inactive | 23 µM | 36 µM | 50 µM | > 100 µM | IC50 [21]: 38 µM; IC50 [22]: 49 µM; IC50 [23]: 41 µM; IC50 [24]: 77 µM |
| COc1cc(NC(C)CCCNC(=O)NCCc2ccccc2)c2ncccc2c1 (configuration not stated) | > 100 µM | 12.6 µM | 2.9 µM | > 100 µM | 56 µM | inactive | inactive | inactive | inactive | inactive | inactive | inactive | inactive | inactive | inactive | inactive | 24 µM | 34 µM | 45 µM | > 100 µM | IC50 [21]: 30 µM; IC50 [22]: 32 µM; IC50 [23]: 27 µM; IC50 [24]: 54 µM |
| COc1cc(NC(C)CCCNC(=O)n2nnc3ccccc32)c2ncccc2c1 (configuration not stated) [PRIMAQUINE BENZOTRIAZOLIDE] | > 100 µM | > 100 µM | > 30 µM | > 100 µM | 72 µM | inactive | inactive | inactive | inactive | inactive | inactive | inactive | inactive | inactive | inactive | inactive | 125 µM | > 100 µM | 74 µM | 71 µM | IC50 [21]: 84 µM; IC50 [22]: > 100 µM; IC50 [23]: > 100 µM; IC50 [24]: > 100 µM |
| COc1cc(NC(C)CCCNC(=O)NC(c2ccccc2)c2ccccc2)c2ncccc2c1 (configuration not stated) | > 100 µM | > 100 µM | > 100 µM | > 100 µM | > 100 µM | inactive | inactive | inactive | inactive | inactive | inactive | inactive | inactive | inactive | inactive | inactive | > 500 µM | 142 µM | ≥ 500 µM | 100 µM | IC50 [21]: 100 µM; IC50 [22]: 58 µM; IC50 [23]: > 100 µM; IC50 [24]: > 100 µM |
| COc1cc(NC(C)CCCNC(=O)NCc2ccccc2)c2ncccc2c1 (configuration not stated) | 35 µM | > 20 µM | 7.6 µM | 100 µM | 66 µM | inactive | inactive | inactive | inactive | inactive | inactive | inactive | inactive | inactive | inactive | inactive | 22 µM | 18 µM | 21 µM | 15 µM | IC50 [21]: 21 µM; IC50 [22]: 9 µM; IC50 [23]: 25 µM; IC50 [24]: 30 µM |
